What all share (format): cell-based
Assay [1] relates to HT29 human colorectal adenocarcinoma cells. The assay is described as follows: MTT cell proliferation assay, serum-free. Particulars: absence of serum, 72 hour MTT assay, FIG. 5c. The method, then:
(§1) HT29 (colorectal adenocarcinoma) (ATCC HTB-38; Manassas, Va.). SW480 colon carcinoma cells (ATCC) and MKN45 gastric carcinoma cells (Cancer Research Laboratory, University of New South Wales, Sydney, Australia) were maintained in DMEM (Invitrogen, Carlsbad, Calif.) containing 10% heat inactivated, filtered, fetal bovine serum (FBS; Invitrogen) and 20 mM HEPES buffer. Cell culture was carried out in an incubator set at 37° C. in 5% CO2 in air. Cells were grown to approximately 80% confluence in tissue culture flasks before being recovered from the substrate by trypsinisation. Briefly, resident culture media was removed and cells washed twice with sterile phosphate-buffered saline solution. A volume of 10× trypsin in EDTA (to provide 0.5% trypsin w/w) was added in sufficient quantity to cover the cells. When cells had sufficiently detached from the substrate, trypsin activity was stopped by the addition of 10% FBS in DMEM. Detached cells were transferred to a conical sterile tube and the suspended cells passaged ten times up and down through a 10 ml pipette to produce a single cell suspension suitable for counting. The number of viable cells was determined using a viability stain (Trypan blue) and counting using a haemocytometer.
(§2) The MTT cell proliferation assay measures cell proliferation rate and, in instances where cell viability is compromised, the assay indicates a comparative reduction in cell viability.
(§3) Single cell suspensions of viable trypsinised cells were seeded into 96-well tissue culture plates at a density of 2×10^3 cells per well in a volume of 100 ul of culture media with or without serum. A set of triplicate wells was prepared for each concentration of compound being tested. […]
(§4) Appropriate concentrations of compound were prepared by dilution of freshly prepared sterile 1 mM stock solutions in normal saline into cell culture media to give a final culture-well volume of 200 ul. […] Plates were gently vortexed to complete solubilisation of crystalline material and absorbance read at 540 nm using a microplate reader. […]
For orientation: Tetrazolium dyes change colour on reduction, which living cells bring about.

The test system of assay [2] is MKN45 human gastric carcinoma cells. The assay is described as follows: MTT cell proliferation assay, serum-containing. Particulars: presence of serum, 48 hour MTT assay, FIG. 6. The method, then: as §1, with “Detached cells were transferred to a conical sterile tube and the suspended cells passaged ten times up and down through a 10 ml pipette to produce a single cell suspension suitable for counting.” left out, “haemocytometer. […]” for “haemocytometer.”
as §4

Assay [3] has as its system SW480 human colon carcinoma cells. The assay is described as follows: MTT cell proliferation assay, serum-containing. Particulars: presence of serum, 48 hour MTT assay, FIG. 6. The method, then: as §1, with “Detached cells were transferred to a conical sterile tube and the suspended cells passaged ten times up and down through a 10 ml pipette to produce a single cell suspension suitable for counting.” left out, “haemocytometer. […]” for “haemocytometer.”
as §4

For assay [4], the system named is HT29 human colorectal adenocarcinoma cells. The assay is described as follows: MTT cell proliferation assay, serum-containing. The method, then: as §1, §2, §3, §4

Entries after “also recorded” stand apart in the source; their conditions may differ. No end group written: not given here.

Take “H-DDVRRRVQQETTGH-COOH (H-DDVRRRVQQETTGH-OH) [14C, 14 mer derivative of 22C containing the TAT-like motif]”: the “inhibition of growth of HT29 colon cancer cells” value in assay [1] is “inhibited the growth”.

On to RGRAKDPL [8C], for which the “inhibition of growth of HT29 colon cancer cells” value in assay [1] was “inhibited the growth”.

Regarding “DDVRRRVQQETTGHRGRAKDPL (listed as Brevibacterium linens) [22C]”, the “inhibition of proliferation of MKN45 cells” value in assay [2] was “inhibit proliferation of SW480 and MKN45 cells to a similar degree as for HT29 cells”. Moreover, in assay [3], the “inhibition of proliferation of SW480 cells” value was “inhibit proliferation of SW480 and MKN45 cells to a similar degree as for HT29 cells”. For the same substance, the “inhibition of growth of HT29 colon cancer cells” value in assay [1] is “inhibited the growth”. Besides, the “depression of in vitro cell proliferation of colon cancer cells” value in assay [4] (MTT assay containing serum (24 hour assay), concentration of 35 uM, FIG. 5d) is “up to 54%”. Moreover, in assay [4] (serum-supplemented culture media, FIG. 5d and FIG. 5a), the “effectiveness compared with other peptides” value is “more effective than peptide 14C and peptide 8C; also recorded: more effective than the 24-NH2 peptide”.

With “24-NH2: peptide consisting of amino acids 266-289 of GenBank Accession No. O68604; extended version of peptide 22C, synthesized and amidated (DDVRRRVQQETTGHRGRAKDPLYR-NH2; listed as Brevibacterium linens)”, in assay [4] (MTT assay (72 hours), serum-containing, concentration of 50 μM, FIG. 5a), the “depression of in vitro cell proliferation of colon cancer cells” value is given as “up to 36%”.
